This is an account of results in patent publication US20230346760A1, “AGENTS TO PREVENT TISSUE DAMAGE FROM CLOSTRIDIUM DIFFICILE INFECTIONS BY INHIBITION OF THE GUT-DAMAGING BACTERIAL TOXINS TCDA AND TCDB” (ALBERT EINSTEIN COLLEGE OF MEDICINE, priority 2020, published 2023).

The test system of assay [1] is Rac1 glucosylation by TcdA in IMR90 cells. It counts as cell-based.
Assay [2] concerns the target T1, TcdB-GTD (Clostridioides difficile, UniProt P18177).
T1 construct: (50 mM HEPES pH 7.5, 100 mM KCl, 4 mM MgCl2, 1 mM MnCl2) and 40 μM TcdB-GTD
The class given is binding, Clostridium difficile.

In assay [3] the test system is TcdB induced cell rounding of CHO-K1 cells. It counts as cell-based.
The target in assay [4] is TcdB (Clostridioides difficile, UniProt P18177). Description: Kinetic inhibition of TcdB glucosyltransferase / UDP-glucose hydrolysis. It counts as biochemical, Clostridium difficile.
Chain of TcdB (P18177 1-543 limits assumed): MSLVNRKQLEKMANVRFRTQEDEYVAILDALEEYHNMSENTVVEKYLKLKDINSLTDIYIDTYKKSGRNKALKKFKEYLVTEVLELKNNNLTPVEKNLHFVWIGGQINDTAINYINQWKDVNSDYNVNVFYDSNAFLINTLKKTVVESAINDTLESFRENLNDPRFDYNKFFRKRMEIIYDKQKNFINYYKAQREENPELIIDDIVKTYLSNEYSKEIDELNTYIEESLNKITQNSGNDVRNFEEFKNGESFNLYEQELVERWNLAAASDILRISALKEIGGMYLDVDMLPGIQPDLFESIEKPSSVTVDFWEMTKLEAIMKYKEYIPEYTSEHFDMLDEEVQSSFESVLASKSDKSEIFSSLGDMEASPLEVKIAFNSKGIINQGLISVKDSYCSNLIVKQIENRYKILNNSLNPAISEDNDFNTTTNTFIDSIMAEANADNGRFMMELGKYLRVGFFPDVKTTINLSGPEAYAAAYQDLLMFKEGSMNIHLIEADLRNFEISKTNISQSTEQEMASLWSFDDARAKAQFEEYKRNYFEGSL
The test system of assay [5] is TcdA induced apoptosis in HT-29 cells. It counts as cell-based.
Assay [6] concerns the target T2, TcdA (Clostridioides difficile, UniProt P16154). Description: biochemical. The class given is binding, Clostridium difficile.
The subject of assay [7] is TcdA induced rounding of CHO-K1 cells. The class given is cell-based.
Assay [8] relates to Rac1 glucosylation by TcdB in IMR90 cells. The class given is cell-based.
Assay [9] deals with T2, TcdA. It counts as biochemical, Clostridium difficile.

“Also recorded” adds a separate entry of the source. Read-outs that look alike come from different tables or passages of the source.

T1 sequence (P18177 2-543 limits assumed): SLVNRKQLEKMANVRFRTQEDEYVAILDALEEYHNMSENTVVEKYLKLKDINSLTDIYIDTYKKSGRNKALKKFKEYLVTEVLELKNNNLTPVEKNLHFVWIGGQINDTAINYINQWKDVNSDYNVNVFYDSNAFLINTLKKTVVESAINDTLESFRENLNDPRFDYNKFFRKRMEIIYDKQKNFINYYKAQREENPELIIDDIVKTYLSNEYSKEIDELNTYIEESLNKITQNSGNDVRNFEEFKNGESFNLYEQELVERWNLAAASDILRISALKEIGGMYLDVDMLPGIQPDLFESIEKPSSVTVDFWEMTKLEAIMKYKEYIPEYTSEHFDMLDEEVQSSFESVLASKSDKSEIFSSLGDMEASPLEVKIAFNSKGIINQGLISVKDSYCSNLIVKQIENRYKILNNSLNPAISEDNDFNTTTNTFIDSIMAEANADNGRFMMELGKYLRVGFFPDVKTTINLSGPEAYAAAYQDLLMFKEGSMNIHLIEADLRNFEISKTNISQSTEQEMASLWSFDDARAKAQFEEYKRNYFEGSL
T2 sequence (P16154 whole entry, looked up): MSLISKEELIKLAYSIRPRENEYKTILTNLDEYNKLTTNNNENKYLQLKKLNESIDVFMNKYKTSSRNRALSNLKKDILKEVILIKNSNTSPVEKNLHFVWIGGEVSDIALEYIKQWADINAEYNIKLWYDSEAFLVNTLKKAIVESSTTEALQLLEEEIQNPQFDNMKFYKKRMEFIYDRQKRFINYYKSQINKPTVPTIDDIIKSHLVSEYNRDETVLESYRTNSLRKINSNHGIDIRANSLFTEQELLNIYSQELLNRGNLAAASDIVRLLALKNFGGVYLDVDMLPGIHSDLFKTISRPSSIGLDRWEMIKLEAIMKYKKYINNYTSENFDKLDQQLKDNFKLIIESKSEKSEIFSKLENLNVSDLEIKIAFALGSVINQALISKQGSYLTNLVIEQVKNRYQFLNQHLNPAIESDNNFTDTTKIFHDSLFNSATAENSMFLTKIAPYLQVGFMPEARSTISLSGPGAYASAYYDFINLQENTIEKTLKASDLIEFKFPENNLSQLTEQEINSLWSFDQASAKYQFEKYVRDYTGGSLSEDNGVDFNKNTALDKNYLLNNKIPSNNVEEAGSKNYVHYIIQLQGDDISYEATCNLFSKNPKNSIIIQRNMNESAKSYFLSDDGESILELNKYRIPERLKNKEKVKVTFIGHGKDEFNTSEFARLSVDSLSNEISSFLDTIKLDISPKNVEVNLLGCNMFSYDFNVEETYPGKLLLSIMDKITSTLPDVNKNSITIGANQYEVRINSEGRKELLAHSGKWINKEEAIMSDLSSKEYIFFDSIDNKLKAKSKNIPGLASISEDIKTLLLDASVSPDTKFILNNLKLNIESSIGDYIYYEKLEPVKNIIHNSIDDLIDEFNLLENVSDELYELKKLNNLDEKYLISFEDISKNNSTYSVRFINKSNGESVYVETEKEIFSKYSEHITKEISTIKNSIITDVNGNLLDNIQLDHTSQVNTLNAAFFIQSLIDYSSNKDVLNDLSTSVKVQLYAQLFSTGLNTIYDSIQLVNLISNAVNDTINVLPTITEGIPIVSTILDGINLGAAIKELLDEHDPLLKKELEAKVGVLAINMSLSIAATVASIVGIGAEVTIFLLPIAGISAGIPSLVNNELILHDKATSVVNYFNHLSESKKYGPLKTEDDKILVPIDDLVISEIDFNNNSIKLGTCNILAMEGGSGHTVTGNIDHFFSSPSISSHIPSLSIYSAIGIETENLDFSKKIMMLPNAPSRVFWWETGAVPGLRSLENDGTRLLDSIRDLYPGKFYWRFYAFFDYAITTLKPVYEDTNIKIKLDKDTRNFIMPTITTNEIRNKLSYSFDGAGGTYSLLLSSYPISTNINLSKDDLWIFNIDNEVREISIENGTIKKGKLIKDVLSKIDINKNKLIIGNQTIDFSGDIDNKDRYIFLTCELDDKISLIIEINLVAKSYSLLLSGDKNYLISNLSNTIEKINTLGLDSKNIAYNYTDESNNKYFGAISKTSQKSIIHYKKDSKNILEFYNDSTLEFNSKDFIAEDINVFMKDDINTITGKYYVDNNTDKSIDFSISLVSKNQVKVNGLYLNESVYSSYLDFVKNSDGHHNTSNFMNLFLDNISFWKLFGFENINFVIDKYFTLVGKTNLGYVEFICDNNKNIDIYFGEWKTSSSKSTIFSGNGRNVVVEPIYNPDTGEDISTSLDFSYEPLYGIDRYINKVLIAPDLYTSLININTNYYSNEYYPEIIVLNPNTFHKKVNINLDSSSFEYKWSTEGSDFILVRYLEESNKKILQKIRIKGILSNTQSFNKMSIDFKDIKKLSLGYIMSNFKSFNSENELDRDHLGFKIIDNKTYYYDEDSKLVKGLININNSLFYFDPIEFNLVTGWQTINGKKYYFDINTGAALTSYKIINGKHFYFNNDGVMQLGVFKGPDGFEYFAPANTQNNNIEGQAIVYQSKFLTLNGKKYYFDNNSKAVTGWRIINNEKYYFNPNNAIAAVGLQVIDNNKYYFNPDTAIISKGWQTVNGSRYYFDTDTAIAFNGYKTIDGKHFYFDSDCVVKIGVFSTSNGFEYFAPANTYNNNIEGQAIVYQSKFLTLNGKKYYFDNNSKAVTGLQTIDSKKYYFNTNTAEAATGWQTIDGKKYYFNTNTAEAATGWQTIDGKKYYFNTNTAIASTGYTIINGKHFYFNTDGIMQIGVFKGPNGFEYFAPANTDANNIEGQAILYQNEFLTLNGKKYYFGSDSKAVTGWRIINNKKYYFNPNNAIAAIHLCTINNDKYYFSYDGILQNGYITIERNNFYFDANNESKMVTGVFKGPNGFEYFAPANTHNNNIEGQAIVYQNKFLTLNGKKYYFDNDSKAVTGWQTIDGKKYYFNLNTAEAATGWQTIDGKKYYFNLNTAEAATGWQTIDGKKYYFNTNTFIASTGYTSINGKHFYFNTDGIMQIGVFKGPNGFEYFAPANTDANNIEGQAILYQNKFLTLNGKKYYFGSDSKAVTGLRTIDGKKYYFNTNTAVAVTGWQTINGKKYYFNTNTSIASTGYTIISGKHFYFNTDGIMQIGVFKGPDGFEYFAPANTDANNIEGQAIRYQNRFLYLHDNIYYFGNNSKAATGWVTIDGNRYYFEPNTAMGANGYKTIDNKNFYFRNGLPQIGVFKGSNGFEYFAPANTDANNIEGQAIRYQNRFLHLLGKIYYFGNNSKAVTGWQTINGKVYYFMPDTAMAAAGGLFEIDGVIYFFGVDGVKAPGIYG

For the compound `OC[C@H]1CNC[C@@H](O)[C@@H]1O` [Isofagomine, (3R,4R,5R)-5-(hydroxymethyl)-3,4-piperidinediol], the “un-glucosylated Rac1 (Mab102) compared to total Rac1” value in assay [1] was “dose-dependent maintenance of un-glucosylated Rac1”. Moreover, in [2], the ITC binding result is reported as “no binding”, the equilibrium dissociation constant (Kd) turned out to be 66.9 ± 19.7 nM, the N is on record as 0.5±0.01 and the ΔG was -9.8 ± 0.3 kcal/mol. Moreover, in assay [2], the ΔH is -10.3 ± 0.1 kcal/mol and the “−TΔS” value was found to be 0.5 ± 0.2 kcal/mol. Further, the “protection from cell rounding” value in assay [3] was “sufficient to protect CHO-K1 cells from rounding; also recorded: prevent rounding”. Besides, the Ki in assay [4] (in the presence of 2×Ki for UDP, read-out: kinetic Ki (apparent Ki)) turned out to be 290 nM. In assay [4] (when UDP is present at 2×Ki), this compound showed an increase of affinity of 3 fold. In addition, in assay [4] (with respect to UDP-glucose), the mechanism of inhibition result is reported as “uncompetitive”. Further, the “apoptosis (Annexin V signal)” value in assay [5] is given as “prevented apoptosis”. The compound also returned a Kd in assay [6] of 7 nM. For the same compound, in assay [7], the “protection from cell rounding” value was “prevent rounding”. In assay [8], the “un-glucosylated Rac1 (Mab102) compared to total Rac1” value was “dose-dependent maintenance of un-glucosylated Rac1”.

For the compound `OC[C@H]1CNC(O)[C@@H](O)[C@@H]1O` (stereo partly shown) [Noeuromycin, noeuromycin], the “un-glucosylated Rac1 (Mab102) compared to total Rac1” value in assay [1] was “dose-dependent maintenance of un-glucosylated Rac1”. Moreover, in [2], binding was characterised by a dissociation constant (Kd) of 180 ± 69.7 nM, the N is recorded as 1.2±0.1, the ΔG is -9.3 ± 0.3 kcal/mol and the ΔH was -5.2 ± 0.1 kcal/mol. In assay [3], the “protection from cell rounding” value is “prevent rounding”. In assay [9], this compound came in with a Ki of 200 nM. The Ki in assay [4] (TcdB-UDP, read-out: Ki) amounted to 4000 nM. Further, the “apoptosis (Annexin V signal)” value in assay [5] is reported as “prevented apoptosis”. Further, the “protection from cell rounding” value in [7] was “prevent rounding”. In addition, the “un-glucosylated Rac1 (Mab102) compared to total Rac1” value in assay [8] was “dose-dependent maintenance of un-glucosylated Rac1”.

As for `O=C1O[C@H](CO)[C@@H](O)[C@H](O)[C@H]1O` [Gluconolactone, reference compound], the “inhibition of Tcds (in words)” value in assay [4] is given as “poor inhibitor”.

In the case of `OC[C@H]1NC[C@H](O)[C@@H](O)[C@@H]1O` [deoxynorjirimycin, reference compound], in [4], the “inhibition of Tcds (in words)” value is recorded as “poor inhibition”.
